Columns and labels:
[1] = tested on: poly(dGdC)2 (DNA, polymer) GC; assay: fluorescence titration, Scatchard; conditions: Na+ (sodium cacodylate, I = 0.05 M); pH 7.0, 25 °C; per phosphate; per base
[2] = tested on: poly dA-poly dT (pdApdT) (DNA, polymer) A/T; assay: UV melting, 260 nm; conditions: Na+ (sodium cacodylate, I = 0.05 M), pH 7.0, per base
[3] = tested on: poly A-poly U (pApU) (RNA, polymer) A/U; assay: fluorescence titration, Scatchard; conditions: Na+ (sodium cacodylate, I = 0.05 M), per phosphate, per base
[4] = tested on: poly(dAdT)2 (DNA, polymer) AT; assay: fluorescence titration, Scatchard; conditions: Na+ (sodium cacodylate, I = 0.05 M); pH 7.0, 25 °C; per phosphate; per base
[5] = tested on: poly A-poly U (pApU) (RNA, polymer) A/U; assay: UV melting, 260 nm; conditions: Na+ (sodium cacodylate, I = 0.05 M); pH 7.0; compound/polynucleotide r = 0.3; per base
[6] = tested on: dAdTdT (ATT) triplex (DNA, polymer) A/T/T; assay: fluorescence titration, Scatchard; conditions: Na+ (sodium cacodylate, I = 0.05 M); pH 7.0, 25 °C; per phosphate; per base
[7] = tested on: poly dA-poly dT (pdApdT) (DNA, polymer) A/T; assay: fluorescence titration, Scatchard; conditions: Na+ (sodium cacodylate, I = 0.05 M); pH 7.0, 25 °C; per phosphate; per base
[8] = tested on: poly(dAdT)2 (DNA, polymer) AT; assay: UV melting, 260 nm; conditions: Na+ (sodium cacodylate, I = 0.05 M); pH 7.0; compound/polynucleotide r = 0.3; per base
[9] = tested on: dAdTdT (ATT) triplex (DNA, polymer) A/T/T; assay: UV melting, 260 nm; conditions: Na+ (sodium cacodylate with NaCl, I = 0.1 M); pH 7.0, 1 mM EDTA; 7.5 μM compound, r = 0.3; transition Tm3→1 (third strand); per base
[10] = compound/polynucleotide r = 0.3

Row | Compound | log Ka [1] | ΔTm ([2]; r = 0.3, biphasic, second transition) | log Ka ([3]; pH 7.0, 25 °C) | log Ka [4] | ΔTm [5] | log Ka [6] | log Ka [7] | ΔTm [8] | ΔTm [9] | ΔTm [2, 10] | log Ka ([3]; pH 5.0, 25 °C, not determinable at pH 7.0)
1 | COC(=O)[C@H](Cc1ccc2c(c1)c(C)nc1ccccc12)NC(=O)[C@H](CCCCN)NC(=O)CNC(=O)c1ccc(C(=O)NC(=N)N)[nH]1 | 5.8 | 2.1 ± 0.5 °C | 7.1 | 6.7 | 2.5 ± 0.5 °C | 7.4 | 6.6 | 1.0 ± 0.5 °C | 1.1 ± 0.5 °C |  | 
2 | COC(=O)[C@H](Cc1ccc2c(c1)c(C)nc1ccccc12)NC(=O)CNC(=O)CNC(=O)c1ccc(C(=O)NC(=N)N)[nH]1 |  |  |  |  | 0 ± 0.5 °C |  |  | 1.2 ± 0.5 °C |  | 0.7 ± 0.5 °C | 
3 | COC(=O)[C@H](Cc1ccc2c(c1)c(C)nc1ccccc12)NC(=O)CNC(=O)[C@H](CCCCN)NC(=O)c1ccc(C(=O)NC(=N)N)[nH]1 | 6.1 |  |  | 6.7 | 0 ± 0.5 °C |  |  | 2.6 ± 0.5 °C |  | 1.5 ± 0.5 °C | 5.5

From publication PMC11084427 (2024)
